Source: patent EP0745599A2, “1-(3-Heterocyclylphenyl)-s-triazine-2,4,6-oxo or thiotrione herbicidal agents” (American Cyanamid Company, priority 1995, dated 1996)

Experiments:
Format in all cases: in vivo
Details in all cases: rated four to five weeks after treatment
[1] = tested on: IPOMOEA SPP.; test: Preemergence herbicidal evaluation, IPOSS (Morningglory Spp.); set-up: key to IPOSS: visual rating scale 0-9 vs control
From the text: (§1) Results of herbicide evaluation are expressed on a rating scale (0-9). The scale is based upon a visual observation of plant stand, vigor, malformation, size, chlorosis and overall plant appearance as compared with a control.
(§2) The preemergence herbicidal activity of the test compounds of the present invention is exemplified by the following tests in which the seeds of a variety of monocotyledonous and dicotyledonous plants are separately mixed with potting soil and planted on top of approximately one inch of soil in separate pint cups. After planting, the cups are sprayed with the selected aqueous acetone solution containing test compound in sufficient quantity to provide the equivalent of about 0.125 to 0.50 kg per hectare of test compound per cup. The treated cups are then placed on greenhouse benches, watered and cared for in accordance with conventional greenhouse procedures. From four to five weeks after treatment, the tests are terminated and each cup is examined and rated according to the rating system provided in Example 42.

[2] = tested on: ECHINOCHLOA CRUS-GALLI, (L) BEAU; test: Preemergence herbicidal evaluation, ECHCG (Barnyardgrass); set-up: key to ECHCG: visual rating scale 0-9 vs control
From the text: as §1, §2

[3] = tested on: CASSIA OBTUSIFOLIA, L.; test: Preemergence herbicidal evaluation, CASOB (Sicklepod); set-up: key to CASOB: visual rating scale 0-9 vs control
From the text: as §1, §2

[4] = tested on: ABUTILON THEOPHRASTI, MEDIC.; test: Preemergence herbicidal evaluation, ABUTH (Velvetleaf); set-up: key to ABUTH: visual rating scale 0-9 vs control
From the text: as §1, §2

[5] = tested on: ZEA MAYS L.; test: Preemergence herbicidal evaluation, ZEAMX (Corn, Field); set-up: key to ZEAMX: visual rating scale 0-9 vs control
From the text: as §1, §2

[6] = tested on: CHENOPODIUM ALBUM, L.; test: Preemergence herbicidal evaluation, CHEAL (Lambsquarters, Common); set-up: key to CHEAL: visual rating scale 0-9 vs control
From the text: as §1, §2

[7] = tested on: AMBROSIA ARTEMISIIFOLIA, L.; test: Preemergence herbicidal evaluation, AMBEL (Ragweed, Common); set-up: key to AMBEL: visual rating scale 0-9 vs control
From the text: as §1, §2

[8] = tested on: ECHINOCHLOA CRUS-GALLI, (L) BEAU; test: Postemergence herbicidal evaluation, ECHCG (Barnyardgrass)
Description: (§3) In the tests, seedling plants are grown in jiffy flats for about two weeks. The test compounds are dispersed in 50/50 acetone/water mixtures containing 0.5% TWEEN®20, a polyoxyethylene sorbitan monolaurate surfactant of Atlas Chemical Industries, in sufficient quantities to provide the equivalent of about 0.125 kg to 0.500 kg per hectare of active compound when applied to the plants through a spray nozzle operating at 40 psi for a predetermined time. After spraying, the plants are placed on greenhouse benches and are cared for in the usual manner, commensurate with conventional greenhouse practices. From four to five weeks after treatment, the seedling plants are examined and rated according to the rating system set forth below. Where more than one test is involved for a given compound, the data are averaged.
as §1

[9] = tested on: ORYZA SATIVA, L. TEBONNET; test: Preemergence herbicidal evaluation, ORYSAT (Rice, Tebonnet); set-up: key to ORYSAT: visual rating scale 0-9 vs control
From the text: as §1, §2

[10] = tested on: TRITICUM AESTIVUM, CV. APOLLO; test: Preemergence herbicidal evaluation, TRZAWO (Wheat, Winter, CV. APOLLO); set-up: key to TRZAWO: visual rating scale 0-9 vs control
From the text: as §1, §2

[11] = tested on: SETARIA VIRIDIS, (L) BEAU; test: Postemergence herbicidal evaluation, SETVI (Foxtail, Green)
Description: as §3, §1

[12] = tested on: GALIUM APARINE; test: Preemergence herbicidal evaluation, GALAP (Galium); set-up: key to GALAP: visual rating scale 0-9 vs control
From the text: as §1, §2

[13] = tested on: SETARIA VIRIDIS, (L) BEAU; test: Preemergence herbicidal evaluation, SETVI (Foxtail, Green); set-up: key to SETVI: visual rating scale 0-9 vs control
From the text: as §1, §2

[14] = tested on: CASSIA OBTUSIFOLIA, L.; test: Postemergence herbicidal evaluation, CASOB (Sicklepod)
Description: as §3, §1

[15] = tested on: GLYCINE MAX(L)MERR. CV. WILLIAMS; test: Preemergence herbicidal evaluation, GLXMAW (Soybean, Williams); set-up: key to GLXMAW: visual rating scale 0-9 vs control
From the text: as §1, §2

[16] = tested on: TRITICUM AESTIVUM, CV. APOLLO; test: Postemergence herbicidal evaluation, TRZAWO (Wheat, Winter, CV. APOLLO)
Description: as §3, §1

[17] = tested on: ABUTILON THEOPHRASTI, MEDIC.; test: Postemergence herbicidal evaluation, ABUTH (Velvetleaf)
Description: as §3, §1

CCOC(=O)Cn1c(=O)[nH]c(=O)n(-c2ccc(F)c(N3C(=O)C4=C(CCCC4)C3=O)c2)c1=O [Compound 9, Ethyl 3-[3-(1-cyclohexene-1,2-dicarbox-imido)-4-fluorophenyl]tetrahydro-2,4,6-trioxo-s-triazine-1(2H)-acetate]
0.0: Herbicide rating (0-9) IPOSS ([1]; 0.125 kg/ha) | Herbicide rating (0-9) IPOSS ([1]; 0.250 kg/ha) | Herbicide rating (0-9) IPOSS ([1]; 0.500 kg/ha) | Herbicide rating (0-9) ECHCG ([2]; 0.125 kg/ha) | Herbicide rating (0-9) ECHCG ([2]; 0.250 kg/ha) | Herbicide rating (0-9) ECHCG ([2]; 0.500 kg/ha) | Herbicide rating (0-9) CASOB ([3]; 0.125 kg/ha) | Herbicide rating (0-9) CASOB ([3]; 0.250 kg/ha) | Herbicide rating (0-9) CASOB ([3]; 0.500 kg/ha) | Herbicide rating (0-9) ABUTH ([4]; 0.125 kg/ha) | Herbicide rating (0-9) ABUTH ([4]; 0.250 kg/ha) | Herbicide rating (0-9) ABUTH ([4]; 0.500 kg/ha) | Herbicide rating (0-9) ZEAMX ([5]; 0.125 kg/ha) | Herbicide rating (0-9) ZEAMX ([5]; 0.250 kg/ha) | Herbicide rating (0-9) ZEAMX ([5]; 0.500 kg/ha) | Herbicide rating (0-9) CHEAL ([6]; 0.125 kg/ha) | Herbicide rating (0-9) CHEAL ([6]; 0.250 kg/ha) | Herbicide rating (0-9) CHEAL ([6]; 0.500 kg/ha) | Herbicide rating (0-9) AMBEL ([7]; 0.125 kg/ha) | Herbicide rating (0-9) AMBEL ([7]; 0.250 kg/ha) | Herbicide rating (0-9) AMBEL ([7]; 0.500 kg/ha) | Herbicide rating (0-9) ECHCG ([8]; 0.125 kg/ha) | Herbicide rating (0-9) ECHCG ([8]; 0.250 kg/ha) | Herbicide rating (0-9) ECHCG ([8]; 0.500 kg/ha) | Herbicide rating (0-9) ORYSAT ([9]; 0.125 kg/ha) | Herbicide rating (0-9) ORYSAT ([9]; 0.250 kg/ha) | Herbicide rating (0-9) ORYSAT ([9]; 0.500 kg/ha) | Herbicide rating (0-9) TRZAWO ([10]; 0.125 kg/ha) | Herbicide rating (0-9) TRZAWO ([10]; 0.250 kg/ha) | Herbicide rating (0-9) TRZAWO ([10]; 0.500 kg/ha) | Herbicide rating (0-9) SETVI ([11]; 0.125 kg/ha) | Herbicide rating (0-9) SETVI ([11]; 0.250 kg/ha) | Herbicide rating (0-9) SETVI ([11]; 0.500 kg/ha) | Herbicide rating (0-9) GALAP ([12]; 0.125 kg/ha) | Herbicide rating (0-9) GALAP ([12]; 0.250 kg/ha) | Herbicide rating (0-9) GALAP ([12]; 0.500 kg/ha) | Herbicide rating (0-9) SETVI ([13]; 0.125 kg/ha) | Herbicide rating (0-9) SETVI ([13]; 0.250 kg/ha) | Herbicide rating (0-9) SETVI ([13]; 0.500 kg/ha) | Herbicide rating (0-9) CASOB ([14]; 0.125 kg/ha) | Herbicide rating (0-9) CASOB ([14]; 0.250 kg/ha) | Herbicide rating (0-9) CASOB ([14]; 0.500 kg/ha) | Herbicide rating (0-9) GLXMAW ([15]; 0.125 kg/ha) | Herbicide rating (0-9) GLXMAW ([15]; 0.250 kg/ha) | Herbicide rating (0-9) GLXMAW ([15]; 0.500 kg/ha)

CC(C)OC(=O)Cn1c(=O)n(C)c(=O)n(-c2cc(N=c3sc(=O)n4n3CCCC4)c(F)cc2Cl)c1=O [Compound 13, Isopropyl 3-{2-chloro-4-fluoro-5-[(tetra-hydro-3-oxo-1H,3H-[1,3,4]thiadiazolo[3,4-a]pyridazin-1-ylidene)amino]phenyl}tetra-hydro-5-methyl-2,4,6-trioxo-s-triazine-1(2H)-acetate]
3.0: AMBEL ([7]; Rate 0.250 kg/ha)
6.0: IPOSS ([1]; Rate 0.500 kg/ha)
1.0: ZEAMX ([5]; Rate 0.500 kg/ha) | ORYSAT ([9]; Rate 0.250 kg/ha) | TRZAWO ([10]; Rate 0.500 kg/ha) | Herbicide rating (0-9) SETVI ([11]; 0.125 kg/ha) | Herbicide rating (0-9) SETVI ([11]; 0.250 kg/ha) | Herbicide rating (0-9) SETVI ([11]; 0.500 kg/ha)
3.5: Herbicide rating (0-9) TRZAWO ([16]; 0.125 kg/ha) | Herbicide rating (0-9) TRZAWO ([16]; 0.250 kg/ha) | Herbicide rating (0-9) TRZAWO ([16]; 0.500 kg/ha)
8.0: AMBEL ([7]; Rate 0.500 kg/ha) | GALAP ([12]; Rate 0.250 kg/ha)
0.0: ECHCG ([2]; Rate 0.125 kg/ha) | ECHCG ([2]; Rate 0.250 kg/ha) | ECHCG ([2]; Rate 0.500 kg/ha) | ZEAMX ([5]; Rate 0.125 kg/ha) | ZEAMX ([5]; Rate 0.250 kg/ha) | AMBEL ([7]; Rate 0.125 kg/ha) | Herbicide rating (0-9) ECHCG ([8]; 0.125 kg/ha) | Herbicide rating (0-9) ECHCG ([8]; 0.250 kg/ha) | Herbicide rating (0-9) ECHCG ([8]; 0.500 kg/ha) | ORYSAT ([9]; Rate 0.125 kg/ha) | TRZAWO ([10]; Rate 0.125 kg/ha) | TRZAWO ([10]; Rate 0.250 kg/ha) | SETVI ([13]; Rate 0.125 kg/ha) | GLXMAW ([15]; Rate 0.125 kg/ha) | GLXMAW ([15]; Rate 0.250 kg/ha) | GLXMAW ([15]; Rate 0.500 kg/ha)
7.0: SETVI ([13]; Rate 0.250 kg/ha) | SETVI ([13]; Rate 0.500 kg/ha)
2.0: IPOSS ([1]; Rate 0.125 kg/ha) | ORYSAT ([9]; Rate 0.500 kg/ha)
5.0: IPOSS ([1]; Rate 0.250 kg/ha) | CASOB ([3]; Rate 0.125 kg/ha)
9.0: CASOB ([3]; Rate 0.250 kg/ha) | CASOB ([3]; Rate 0.500 kg/ha) | ABUTH ([4]; Rate 0.125 kg/ha) | ABUTH ([4]; Rate 0.250 kg/ha) | ABUTH ([4]; Rate 0.500 kg/ha) | CHEAL ([6]; Rate 0.125 kg/ha) | CHEAL ([6]; Rate 0.250 kg/ha) | CHEAL ([6]; Rate 0.500 kg/ha) | GALAP ([12]; Rate 0.125 kg/ha) | GALAP ([12]; Rate 0.500 kg/ha) | Herbicide rating (0-9) ABUTH ([17]; 0.125 kg/ha) | Herbicide rating (0-9) ABUTH ([17]; 0.250 kg/ha) | Herbicide rating (0-9) ABUTH ([17]; 0.500 kg/ha)
